Reference: patent US20250197407A1 (Jazz Pharmaceuticals Ireland Limited, priority 2022, published 2025)

target: SOS1/KRAS WT (Homo sapiens (Human), UniProt Q07889); test: SOS1/KRAS WT HTRF binding assay (FRET-based protein-protein interaction); conditions: inhibition of His6-SOS1 (aa564-1049, 40 nM) binding to GST-KRAS-WT (aa1-188, 40 nM); at least two independent replicates; read-out: SOS1/KRAS WT HTRF Binding assay pIC50 (converted)
Source text: The capacity of compounds to inhibit SOS1 binding to KRAS-WT (wild-type) was quantified using a FRET-based protein-protein interaction assay. The assay is based on the transfer of energy between two fluorophores, a donor and an acceptor, when in close proximity. In this instance, the donor is a Europium-conjugated α-GST antibody that binds to GST-tagged KRAS-WT, and the acceptor is an XL665-conjugated α-His 6 antibody that binds to His 6-tagged SOS1. Binding of SOS1 to KRAS-WT results in an increased fluorescent signal at emission wavelength of 665 nm which can be detected on the EnVision plate reader. Compounds that inhibit binding will reduce the 665 nm signal emitted. Recombinant KRAS-WT protein (40 nM; Human KRAS, aa1-188 recombinant protein with N-terminal GST-tag) and SOS1 protein (40 nM; Human SOS1 exchange domain, aa564-1049 with N-terminal 6His-tag) were mixed together in assay buffer (5 mM HEPES pH7.3, 150 mM NaCl, 10 mM EDTA, 5 mM MgCl2, 0.05% BSA, 0.0025% NP-40, 1 mM DTT and 100 mM KF) and incubated at room temperature with a dose response of compound in a 384-well low volume white plate and a final volume of 5 ul. After a 60 minute incubation, 5 ul of 4 nM anti-GST-Eu(K) (Cisbio, France) combined with 20 nM anti-6His-XL665 (Cisbio, France), diluted in assay buffer, was added to the plate. Following a further 4 hr incubation at room temperature, time-resolved fluorescence was measured on the EnVision plate reader. DMSO (0.05%) and 10 μM reference compound were used to generate the Max and Min assay signals, respectively. Data was analysed using a four-parameter logistic model to calculate IC50 values, with at least two independent replicates performed for each compound.
Data was analyzed using a four-parameter logistic model to calculate IC50 values, with at least two independent replicates performed for each compound.

Chain of SOS1/KRAS WT (Q07889 564-1049): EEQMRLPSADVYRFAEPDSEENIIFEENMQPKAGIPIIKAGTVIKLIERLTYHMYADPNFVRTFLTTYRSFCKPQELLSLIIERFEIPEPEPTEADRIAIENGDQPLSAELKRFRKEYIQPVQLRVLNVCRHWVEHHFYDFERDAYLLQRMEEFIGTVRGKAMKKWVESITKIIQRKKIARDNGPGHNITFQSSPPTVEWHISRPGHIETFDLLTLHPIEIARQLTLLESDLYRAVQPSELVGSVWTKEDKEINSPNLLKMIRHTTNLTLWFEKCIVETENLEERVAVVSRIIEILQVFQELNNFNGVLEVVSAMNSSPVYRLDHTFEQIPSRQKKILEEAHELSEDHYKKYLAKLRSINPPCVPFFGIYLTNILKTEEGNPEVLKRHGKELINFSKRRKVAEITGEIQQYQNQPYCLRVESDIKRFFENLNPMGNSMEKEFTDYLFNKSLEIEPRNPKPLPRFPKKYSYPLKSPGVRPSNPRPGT

Row | IC50 [nM] | Compound
1 | 5.01 | Cc1nnc(N[C@H](C)c2cccc(C(F)(F)CN)c2F)c2cc3c(cc12)n(C)c(=O)n3C(C)(C)C [Compound 53, 3-tert-butyl-1,8-dimethyl-5-[[(1R)-1-[3-(2-amino-1,1-difluoro-ethyl)-2-fluoro-phenyl]ethyl]amino]imidazo[4,5-g]phthalazin-2-one]
2 | 7.94 | Cc1nnc(N[C@H](C)c2cccc(C(F)(F)C(C)(C)O)c2F)c2cc3c(cc12)C(C)(C)C(=O)N3C1CC1 [Compound 59, 1-cyclopropyl-3,3,5-trimethyl-8-[[(1R)-1-[3-(1,1-difluoro-2-hydroxy-2-methyl-propyl)-2-fluoro-phenyl]ethyl]amino]pyrrolo[2,3-g]phthalazin-2-one]
3 | 10.7 | Cc1nnc(N[C@H](C)c2cccc(C(F)F)c2F)c2cc3c(cc12)C(C)(C)C(=O)N3C1CC1 [Compound 62, 1-cyclopropyl-3,3,5-trimethyl-8-[[(1R)-1-[3-(difluoromethyl)-2-fluoro-phenyl]ethyl]amino]pyrrolo[2,3-g]phthalazin-2-one]
4 | 9.77 | Cc1nnc(N[C@H](C)c2cccc(C(F)(F)C(C)(C)O)c2)c2cc3c(cc12)C(C)(C)C(=O)N3C1CC1 [Compound 65, 1-cyclopropyl-3,3,5-trimethyl-8-[[(1R)-1-[3-(1,1-difluoro-2-hydroxy-2-methyl-propyl)phenyl]ethyl]amino]pyrrolo [2,3-g]phthalazin-2-one]
5 | 8.51 | Cc1c([C@@H](C)Nc2nnc(C)c3cc4c(cc23)N(C2CC2)C(=O)C4(C)C)cccc1C(F)(F)CO [Compound 66, 1-cyclopropyl-3,3,5-trimethyl-8-[[(1R)-1-[3-(1,1-difluoro-2-hydroxy-ethyl)-2-methyl-phenyl]ethyl]amino]pyrrolo[2,3-g]phthalazin-2-one]
6 | 9.12 | Cc1c([C@@H](C)Nc2nnc(C)c3cc4c(cc23)N(C)C(=O)C4(C)C)cccc1C(F)(F)CO [Compound 69, 1,3,3,5-tetramethyl-8-[[(1R)-1-[3-(1,1-difluoro-2-hydroxy-ethyl)-2-methyl-phenyl]ethyl]amino]pyrrolo[2,3-g]phthalazin-2-one]
7 | 6.92 | Cc1nnc(N[C@H](C)c2cccc(C(F)(F)C(C)(C)O)c2F)c2cc3c(cc12)C1(CCOCC1)C(=O)N3C [Compound 73, 1,5-dimethyl-8-[[(1R)-1-[3-(1,1-difluoro-2-hydroxy-2-methyl-propyl)-2-fluoro-phenyl]ethyl]amino]spiro[pyrrolo [2,3-g]phthalazine-3,4′-tetrahydropyran]-2-one]
8 | 8.71 | COC1(C)C(=O)N(C)c2cc3c(N[C@H](C)c4cccc(C(F)(F)C(C)(C)O)c4F)nnc(C)c3cc21 (stereo partly drawn) [Compound 75, 3-methoxy-1,3,5-trimethyl-8-[[(1R)-1-[3-(1,1-difluoro-2-hydroxy-2-methyl-propyl)-2-fluoro-phenyl]ethyl]amino]pyrrolo[2,3-g]phthalazin-2-one]
9 | 11.2 | Cc1nnc(N[C@H](C)c2cccc(C(F)(F)C(C)(C)O)c2)c2cc3c(cc12)C(C)(C)C(=O)N3C [Compound 77, 1,3,3,5-tetramethyl-8-[[(1R)-1-[3-(1,1-difluoro-2-hydroxy-2-methyl-propyl)phenyl]ethyl]amino]pyrrolo [2,3-g]phthalazin-2-one]
10 | 6.76 | Cc1c([C@@H](C)Nc2nnc(C)c3cc4c(cc23)N(C(C)C)C(=O)C4(C)C)cccc1C(F)(F)CO [Compound 79, 1-isopropyl-3,3,5-trimethyl-8-[[(1R)-1-[3-(1,1-difluoro-2-hydroxy-ethyl)-2-methyl-phenyl]ethyl]amino]pyrrolo[2,3-g]phthalazin-2-one]

The remaining lines, values behind:

Row | Compound | IC50 [nM]
11 | Cc1c([C@@H](C)Nc2nnc(C)c3cc4c(cc23)n(C)c(=O)n4C)cccc1C(F)(F)F [Compound 54, 1,3,8-trimethyl-5-[[(1R)-1-[2-methyl-3-(trifluoromethyl)phenyl]ethyl]amino] imidazo[4,5-g]phthalazin-2-one] | 6.17
12 | COc1c([C@@H](C)Nc2nnc(C)c3cc4c(cc23)n(C)c(=O)n4C)cccc1C(F)(F)F [Compound 55, 5-[[(1R)-1-[2-methoxy-3-(trifluoromethyl)phenyl]ethyl]amino]-1,3,8-trimethyl-imidazo[4,5-g]phthalazin-2-one] | 57.5
13 | Cc1nnc(N[C@H](C)c2cccc(C(F)(F)F)c2)c2cc3c(cc12)n(C1CC1)c(=O)n3C [Compound 56, 1-cyclopropyl-3,8-dimethyl-5-[[(1R)-1-[3-(trifluoromethyl)phenyl]ethyl]amino] imidazo[4,5-g]phthalazin-2-one] | 11.5
14 | Cc1nnc(N[C@H](C)c2ccc3cn[nH]c3c2)c2cc3c(cc12)n(C)c(=O)n3C [Compound 57, 5-[[(1R)-1-(1H-indazol-6-yl)ethyl]amino]-1,3,8-trimethyl-imidazo[4,5-g]phthalazin-2-one] | 93.3
15 | Cc1c([C@@H](C)Nc2nnc(C)c3cc4c(cc23)n(C2CC2)c(=O)n4C)cccc1C(F)(F)F [Compound 58] | 6.61
16 | Cc1nnc(N[C@H](C)c2cccc3[nH]ncc23)c2cc3c(cc12)n(C)c(=O)n3C [Compound 60, 5-[[(1R)-1-(1H-indazol-4-yl)ethyl]amino]-1,3,8-trimethyl-imidazo[4,5-g]phthalazin-2-one] | 209
17 | Cc1nnc(N[C@H](C)c2cccc3c(F)cn(C)c23)c2cc3c(cc12)n(C)c(=O)n3C [Compound 61, 1,3,8-trimethyl-5-[[(1R)-1-(3-fluoro-1-methyl-indol-7-yl)ethyl]amino]imidazo[4,5-g]phthalazin-2-one] | 100
18 | CNCC(F)(F)c1cccc([C@@H](C)Nc2nnc(C)c3cc4c(cc23)n(C)c(=O)n4C)c1F [Compound 63, 1,3,8-trimethyl-5-[[(1R)-1-[3-[1,1-difluoro-2-(methylamino)ethyl]-2-fluoro-phenyl]ethyl]amino]imidazo[4,5-g]phthalazin-2-one] | 15.8
19 | Cc1nnc(N[C@H](C)c2cccc(C(F)(F)C(C)(C)O)c2)c2cc3c(cc12)n(C)c(=O)n3C [Compound 64, 1,3,8-trimethyl-5-[[(1R)-1-[3-(1,1-difluoro-2-hydroxy-2-methyl-propyl)phenyl]ethyl]amino]imidazo [4,5-g]phthalazin-2-one] | 8.13
20 | Cc1nnc(N[C@H](C)c2cccc(C(F)(F)C(C)(C)O)c2)c2cc3c(cc12)n(C)c(=O)n3C1CC1 [Compound 67, 3-cyclopropyl-1,8-dimethyl-5-[[(1R)-1-[3-(1,1-difluoro-2-hydroxy-2-methyl-propyl)phenyl]ethyl]amino]imidazo [4,5-g]phthalazin-2-one] | 7.41
21 | Cc1c([C@@H](C)Nc2nnc(C)c3cc4c(cc23)n(C2CC2)c(=O)n4C)cccc1C(F)(F)CO [Compound 68, 3-cyclopropyl-1,8-dimethyl-5-[[(1R)-1-[3-(1,1-difluoro-2-hydroxy-ethyl)-2-methyl-phenyl]ethyl]amino]imidazo[4,5-g]phthalazin-2-one] | 9.55
22 | Cc1nnc(N[C@H](C)c2cccc(C(F)(F)CO)c2)c2cc3c(cc12)n(C)c(=O)n3C1CC1 [Compound 70, 3-cyclopropyl-1,8-dimethyl-5-[[(1R)-1-[3-(1,1-difluoro-2-hydroxy-ethyl)phenyl]ethyl]amino]imidazo [4,5-g]phthalazin-2-one] | 11.5
23 | Cc1c([C@@H](C)Nc2nnc(C)c3cc4c(cc23)N(C)C(=O)C42CCOCC2)cccc1C(F)(F)CO [Compound 72, 1,5-dimethyl-8-[[(1R)-1-[3-(1,1-difluoro-2-hydroxy-ethyl)-2-methyl-phenyl]ethyl]amino]spiro[pyrrolo [2,3-g]phthalazine-3,4′-tetrahydropyran]-2-one] | 9.77
24 | Cc1nnc(N[C@H](C)c2cccc(C(F)(F)F)n2)c2cc3c(cc12)n(C)c(=O)n3C [Compound 74, 1,3,8-trimethyl-5-[[(1R)-1-[6-(trifluoromethyl)-2-pyridyl]ethyl]amino]imidazo[4,5-g]phthalazin-2-one] | 912
25 | Cc1c([C@@H](C)Nc2nnc(C)c3cc4c(cc23)n(C2(C)CC2)c(=O)n4C)cccc1C(F)(F)CO [Compound 76, 1,8-dimethyl-3-(1-methylcyclopropyl)-5-[[(1R)-1-[3-(1,1-difluoro-2-hydroxy-ethyl)-2-methyl-phenyl]ethyl]amino]imidazo[4,5-g]phthalazin-2-one] | 6.03
26 | Cc1nnc(N[C@H](C)c2cccc(C(F)(F)CO)c2)c2cc3c(cc12)C(C)(C)C(=O)N3C [Compound 78, 1,3,3,5-tetramethyl-8-[[(1R)-1-[3-(1,1-difluoro-2-hydroxy-ethyl)phenyl]ethyl]amino]pyrrolo [2,3-g]phthalazin-2-one] | 9.55
